Experimental data reported in PMC9207808 (ACS Chemical Biology, 2022).
Residues, ends and D or L forms follow the SMILES beside them.

Tests used:
[1] = test system: DocSTm; assay: Differential scanning fluorimetry (thermal stabilisation of Doc); assay type: binding, S. Typhimurium; conditions: for melting temperature shift ΔTm: DSF, DocSTm 5 μM, analyte 50 μM, Tm with analyte minus Tm of free DocSTm (42.9 ± 0.9 °C), SYPRO Orange, 20 mM K2HPO4, 50 mM (NH4)2SO4, pH 8.0, triplicate; for Average Tm / Tm: DocSTm 5 µM + 50 µM binder; for Average Tm: average of 3 replicates
Procedure, shortened: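 Thermal shift of 5 μM Doc in 20 mM K2HPO4, 50 mM (NH4)2SO4, pH 8.0 with 3× SYPRO Orange, heated from 25 to 95 °C in a qPCR instrument, in triplicate. Melting temperatures from Boltzmann sigmoid fits of the transition region.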

[2] = test system: S. Typhimurium (14028) Δphd-doc::Km strains coexpressing DocSTm; assay: Growth rescue experiment in S. Typhimurium; assay type: cell-based; conditions: coexpression of DocSTm (pBAD33, arabinose) and Phd construct (pCA24N, basal expression); OD600 over time, M9 minimal medium; average of three independent experiments
Protocol: The cotransformations above were also performed with an empty pBAD33 plasmid, as a control for the absence of DocSTm expression.
For the growth rescue experiment, overnight (1% tryptone, 0.5% yeast extract, 0.5% NaCl, 1% glucose, 100 μg/mL of carbenicillin, and 34 μg/mL of chloramphenicol) cultures of the generated S. Typhimurium strains were diluted to an OD600 of approximately 0.006 into fresh M9 minimal medium supplemented with 0.5% or 1% arabinose, 0.4% glycerol, 0.4% casamino acids, 100 μg/mL of carbenicillin, and 34 μg/mL of chloramphenicol. Cell growth at a given time was monitored at OD600 with a Genesys 140 Visible Spectrophotometer (Thermo Scientific).

[3] = test system: DocSTm; assay: Dot blot phosphorylation assay (EF-Tu phosphorylation by Doc); assay type: biochemical, S. Typhimurium; conditions: DocSTm 1 μM, EF-TuSTm 3 μM, ATP 1 mM; for inhibition of EF-TuSTm phosphorylation by DocSTm (in words): α-pThr, inhibitor 10 μM to 5 nM (3-fold dilutions), 16 h at RT
Protocol: Samples were prepared to a final volume of 10 μL. […] Samples were incubated for 16 h at RT and subsequently spotted on a nitrocellulose membrane. Phosphorylated EF-Tu was detected by immunodecoration using a rabbit monoclonal antiphosphothreonine antibody (Abcam, ab218195) at 1:2000 dilution (1 h at 4 °C), followed by incubation with a goat antirabbit IgG (H+L) HRP conjugate antibody (Advansta) at 1:10 000 dilution (1 h at RT). Chemiluminescence was developed using the HRP Luminata kit (Merck, WBLUR0100) and captured by an ImageQuant LAS4000 Western blot imaging system (Cytiva).

[4] = biological target: DocSTm; assay: Surface plasmon resonance binding to immobilised Doc; design: species or system S. Typhimurium; conditions: for koff × 10^-6 / kon × 10^6: 1:1 kinetic fit, mean ± SD of at least 3 replicates; for kon × 10^6: single-cycle kinetics (multicycle for PhdSTm1-73); for Half-life of the complex: t1/2 = ln2 / koff; for fold decrease in affinity (given as decrease/loss in Kd) compared with peptide 1: SPR Kd relative to wild-type peptide 1
Procedure, shortened: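 Doc captured on an NTA chip at 22 °C in 10 mM HEPES, 500 mM NaCl, 50 μM EDTA, 0.005% TWEEN 20, pH 8.0. Analytes injected as 80 s pulses at 30 μL/min in multicycle or single-cycle kinetics.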

[5] = SPR, kinetic fit, KD calculated from mean koff and kon, SD propagated, 22 °C, pH 8.0
[6] = SPR multicycle, steady-state fit, replicate 1
[7] = SPR multicycle, steady-state fit, replicate 2
[8] = SPR multicycle, steady-state fit, replicate 3
[9] = SPR, multicycle kinetics, steady-state 1:1 fit, mean ± SD of 3 replicates

Compound | melting temperature shift ΔTm [1] [°C] | Average Tm [1] [°C] | Tm ([1]; replicate 1) [°C] | Tm ([1]; replicate 2) [°C] | Tm ([1]; replicate 3) [°C] | rescue of Salmonella growth from DocSTm-induced growth inhibition (in words) [2] | inhibition of EF-TuSTm phosphorylation by DocSTm (in words) [3] | Kd ([4]; SPR kinetic fit, replicate 1) [nM] | Kd ([4]; SPR kinetic fit, replicate 2) [nM] | Kd ([4]; SPR kinetic fit, replicate 3) [nM] | koff × 10^-6 ([4]; SPR, 22 °C, pH 8.0) | kon × 10^6 ([4]; SPR, 22 °C, pH 8.0) | Half-life of the complex [4] [h] | fold decrease in affinity (given as decrease/loss in Kd) compared with peptide 1 [4] | Kd [4, 5] [nM] | Kd [4, 6] [nM] | Kd [4, 7] [nM] | Kd [4, 8] [nM] | Kd [4, 9] [nM] | further results
CC[C@H](C)[C@H](NC(=O)[C@H](C)NC(=O)[C@H](C)NC(=O)[C@H](Cc1ccccc1)NC(=O)[C@H](CCC(=O)O)NC(=O)[C@H](CC(=O)O)NC(=O)[C@H](CC(=O)O)NC(=O)[C@H](CCSC)NC(=O)[C@H](Cc1c[nH]c2ccccc12)NC(C)=O)C(=O)N[C@@H](CCSC)C(=O)N[C@@H](C)C(=O)N[C@H](C(=O)N[C@@H](Cc1c[nH]cn1)C(=O)NCC(=O)N[C@@H](CC(N)=O)C(=O)N[C@@H](CCC(=O)O)C(=O)N[C@@H](CC(C)C)C(=O)N[C@@H](CCCNC(=N)N)C(=O)N[C@@H](CCC(=O)O)C(=O)N[C@@H](CC(C)C)C(=O)N[C@@H](C)C(=O)N[C@@H](CC(=O)O)C(=O)N[C@@H](CCCCN)C(=O)O)C(C)C [peptide 1] (Ac-WMDDEFAAIMAVHGNELRELADK-OH) | 28.8 ± 0.9 | 71.7 ± 0.1 | 71.8 | 71.5 | 71.6 | only rescued growth after a delay and longer incubation times of 16–18 h | comparable inhibition of the kinase activity | 0.0734 | 0.0838 | 0.0591 | 91 ± 11 ×10^-6 s-1 | 1.250 ± 0.259 ×10^6 M-1 s-1 | 2.1 ± 0.3 |  |  |  |  |  |  | concentration at which EF-TuSTm phosphorylation is fully inhibited [3]: ≥ 1 µM; Kd ([4]; SPR kinetic fit, replicate 4): 0.0819 nM
CC[C@H](C)[C@H](NC(=O)[C@H](C)NC(=O)[C@H](C)NC(=O)[C@H](C)NC(=O)[C@H](CCC(=O)O)NC(=O)[C@H](CC(=O)O)NC(=O)[C@H](CC(=O)O)NC(=O)[C@H](CCSC)NC(=O)[C@H](Cc1c[nH]c2ccccc12)NC(C)=O)C(=O)N[C@@H](CCSC)C(=O)N[C@@H](C)C(=O)N[C@H](C(=O)N[C@@H](Cc1c[nH]cn1)C(=O)NCC(=O)N[C@@H](CC(N)=O)C(=O)N[C@@H](CCC(=O)O)C(=O)N[C@@H](CC(C)C)C(=O)N[C@@H](CCCNC(=N)N)C(=O)N[C@@H](CCC(=O)O)C(=O)N[C@@H](CC(C)C)C(=O)N[C@@H](C)C(=O)N[C@@H](CC(=O)O)C(=O)N[C@@H](CCCCN)C(=O)O)C(C)C [peptide 6] (Ac-WMDDEAAAIMAVHGNELRELADK-OH; C-terminus assumed) | 21.1 ± 1.0 | 64.0 ± 0.5 | 64.5 | 64.1 | 63.5 | not able to counteract DocSTm-induced growth inhibition of Salmonella | among the poorest inhibitors of EF-TuSTm phosphorylation | 1 | 0.919 | 0.745 | 843 ± 231 ×10^-6 s-1 | 0.989 ± 0.434 ×10^6 M-1 s-1 | 0.23 ± 0.06 | 8- to 30 fold | 0.852 |  |  |  |  | affinity to DocSTm greater than that of peptides 7, 10 and 14 ([4]; SPR Kd ratio): at least 12 fold
CSCC[C@H](NC(=O)[C@H](C)NC(=O)[C@H](C)NC(=O)[C@H](C)NC(=O)[C@H](Cc1ccccc1)NC(=O)[C@H](CCC(=O)O)NC(=O)[C@H](CC(=O)O)NC(=O)[C@H](CC(=O)O)NC(=O)[C@H](CCSC)NC(=O)[C@H](Cc1c[nH]c2ccccc12)NC(C)=O)C(=O)N[C@@H](C)C(=O)N[C@H](C(=O)N[C@@H](Cc1c[nH]cn1)C(=O)NCC(=O)N[C@@H](CC(N)=O)C(=O)N[C@@H](CCC(=O)O)C(=O)N[C@@H](CC(C)C)C(=O)N[C@@H](CCCNC(=N)N)C(=O)N[C@@H](CCC(=O)O)C(=O)N[C@@H](CC(C)C)C(=O)N[C@@H](C)C(=O)N[C@@H](CC(=O)O)C(=O)N[C@@H](CCCCN)C(=O)O)C(C)C [peptide 7] (Ac-WMDDEFAAAMAVHGNELRELADK-OH; C-terminus assumed) | 15.5 ± 1.5 | 58.4 ± 1.2 | 59.7 | 57.7 | 57.6 | unable to rescue growth |  |  |  |  |  |  |  | ~300 fold |  | 25.4 ± 3 | 19.4 ± 2.2 | 15.1 ± 0.09 | 19.9 ± 5.18 | 
CC[C@H](C)[C@H](NC(=O)[C@H](C)NC(=O)[C@H](C)NC(=O)[C@H](Cc1ccccc1)NC(=O)[C@H](CCC(=O)O)NC(=O)[C@H](CC(=O)O)NC(=O)[C@H](CC(=O)O)NC(=O)[C@H](CCSC)NC(=O)[C@H](Cc1c[nH]c2ccccc12)NC(C)=O)C(=O)N[C@@H](CCSC)C(=O)N[C@@H](C)C(=O)N[C@H](C(=O)N[C@@H](C)C(=O)NCC(=O)N[C@@H](CC(N)=O)C(=O)N[C@@H](CCC(=O)O)C(=O)N[C@@H](CC(C)C)C(=O)N[C@@H](CCCNC(=N)N)C(=O)N[C@@H](CCC(=O)O)C(=O)N[C@@H](CC(C)C)C(=O)N[C@@H](C)C(=O)N[C@@H](CC(=O)O)C(=O)N[C@@H](CCCCN)C(=O)O)C(C)C [peptide 10] (Ac-WMDDEFAAIMAVAGNELRELADK-OH; C-terminus assumed) | 20.9 ± 1.0 | 63.7 ± 0.4 | 63.3 | 63.7 | 64.2 | provided only a partial rescue |  |  |  |  |  |  |  | ~300 fold |  | 12.2 ± 1.8 | 13.1 ± 1.4 | 40 ± 2.87 | 21.8 ± 15.8 | 
CC[C@H](C)[C@H](NC(=O)[C@H](C)NC(=O)[C@H](C)NC(=O)[C@H](Cc1ccccc1)NC(=O)[C@H](CCC(=O)O)NC(=O)[C@H](CC(=O)O)NC(=O)[C@H](CC(=O)O)NC(=O)[C@H](CCSC)NC(=O)[C@H](Cc1c[nH]c2ccccc12)NC(C)=O)C(=O)N[C@@H](C)C(=O)N[C@@H](C)C(=O)N[C@H](C(=O)N[C@@H](Cc1c[nH]cn1)C(=O)NCC(=O)N[C@@H](CC(N)=O)C(=O)N[C@@H](CCC(=O)O)C(=O)N[C@@H](CC(C)C)C(=O)N[C@@H](CCCNC(=N)N)C(=O)N[C@@H](CCC(=O)O)C(=O)N[C@@H](CC(C)C)C(=O)N[C@@H](C)C(=O)N[C@@H](CC(=O)O)C(=O)N[C@@H](CCCCN)C(=O)O)C(C)C [peptide 8] (Ac-WMDDEFAAIAAVHGNELRELADK-OH; C-terminus assumed) | 20.8 ± 1.0 | 63.7 ± 0.4 | 64.1 | 63.3 | 63.7 | fully rescued Salmonella growth after 18 h of culture |  | 0.67 | 0.611 | 0.485 | 1223 ± 504 ×10^-6 s-1 | 2.221 ± 1.307 ×10^6 M-1 s-1 | 0.16 ± 0.6 | 8- to 30 fold | 0.553 ± 0.397 |  |  |  |  | 
PhdSTm: full-length wild-type Phd antitoxin protein of S. Typhimurium |  |  |  |  |  | prevented Doc-induced growth inhibition | no phosphorylation was detected |  |  |  |  |  |  |  |  |  |  |  |  | Half-life of the complex ([4]; listed as PhdSTm1-73): 6.7 ± 1.4 h
